The structures appear in SMILES notation.

This experiment deals with primary human tumor cells. Description: Drug sensitivity assay of primary tumor cell cultures on cell-adhesive matrix, growth quantitated by optical density of crystal violet stained wells, IC90 from survival curves. The class given is cell-based. Particulars: median of IC90 values over a large group of individuals' tumor cells (Figure 5); 5 days drug exposure, then 7 days further culture; 2,000 cells per well. As to the method:
Biopsies of tumors were obtained from cancer patients during routine diagnostic or therapeutic procedures. The biopsies were transported to the laboratory.
The solid tumor biopsies were minced with scapels to 1 mm pieces. Fluid specimens were anticoagulated with 10 Units/ml of Heparin and the cells recovered by contrifugation. The tissue from either the solid or fluid specimens were disaggregated by overnight incubation with constant stirring with the enzyme cocktail consisting of collagenase (0.075%) and DNase (0.005%) in culture medium supplemented with 10% fetal bovine serum. […]
The tumor cell count is performed using a hemocytometer and a microscope fitted with a phase gradient inaging system so that living cells can be visualized. The number of viable tumor cells are counted at 400X magnification according to the following criteria: 1. unstained by the trypan blue dye; 2. large size (>15 microns); 3. large nucleous to cytoplasmic ratio; 4. prominant nucleoli; and 5. nil to moderate granularity. The number of cells in 1/9th the marked area of the hemocytometer meeting the above criteria are counted.
The cell concentration is calculated and an aliquot containing the number of cells required for the assay (200,000 cells for a 9 drug assay using alphaMEM culture medium) is withdrawn. […]

For the compound `N.N.[Cl][Pt][Cl]` [cisplatin], the “IC90 (concentration of drug that killed or inhibited 90% of the growing population of cells), median of the distribution of responses” value was found to be 0.3 µg/mL.

Source of the values: patent EP0259183A2, “Process for controlling the accuracy and precision of sensitivity assays” (LIFETRAC, priority 1986, dated 1988).
